Assay results from patent publication US20260344668A1, “PHENYLPYRAZOLE COMPOUND, AND PLANT DISEASE CONTROL METHOD” (priority 2022, published 2026).

What was measured:
Phakopsora pachyrhizi [1] = experiment: Test Example 15 Control Test Against Soybean Rust Fungus (spore germination, 96 well titer plate); assay type: cell-based; conditions: treatment concentration 1 ppm, 23° C., several hours
Experimental: (§1) The term of “non-treated well” in Test Example 4, Test Example 5, and Test Example 6 represents a well wherein a test was carried out under the same conditions as those described in each Test Example except for dispensing DMSO instead of a diluted solution with DMSO comprising the Present compound. Also, the term of “non-treated” in Test Examples 15 to 17 represents a test which was carried out under the same conditions as those described in each Test Example except for dispensing DMSO instead of a diluted solution with DMSO comprising the Present compound. Also, the term of “non-treated leaf disk” in Test Example 7 represents a leaf disk wherein a test was carried out under the same conditions as those described in the Test Example except for dispensing DMSO instead of a diluted solution with DMSO comprising the Present compound. Also, the term of “non-treated” in Test Example 10 and Test Example 11 means that a diluted solution with water of a formulation comprising the Present compound was not sprayed.
The Present compound was diluted with DMSO to obtain a diluted solution containing 150 ppm of the compound, and 1 μL of the diluted solution was dispensed into a titer plate (96 well), and thereto was then dispensed 149 μL of an aqueous suspension (1.0×10^4/mL) of spores of Phakopsora pachyrhizi to which spores of Phakopsora pachyrhizi were suspended in advance. This plate was cultured at 23° C. for several hours, and then germinated spores of Phakopsora pachyrhizi were counted. As a result, when the treatment concentration was 1 ppm, the number of germinated spores in each well comprising any one of the Present compound 1, 11, 17, 18, 20, 23, 30, 33, 34, 35, 36, 37, 38, 39, 40, 41, 42, 43, 44, 46, 47, 48, 49, 50, 51, 52, 53, 54, 55, 56, 57, 58, 62, 63, 64, 65, 66, 67, 68, 69, 70, 71, 72, 73, 74, 75, 76, 77, 78, 79, 80, 81, 82, 83, 84, 85, 86, 87, 88, 89, 90, 91, 92, 93, 94, 95, 96, 97, 98, 99, 100, 101, or 102 as the test compound was 50% or less relative to the number of germinated spores in the non-treated well.

[2] = tested on: soybean rust fungus (Phakopsora pachyrhizi) having an amino acid substitution of F129L in a mitochondrial cytochrome b protein; experiment: Test Example 7 Control Test Against Soybean Rust (leaf disk); assay type: in vivo; conditions: 200 ppm, 10 μL per soybean leaf disk (cultivar: Kurosengoku), inoculated after 1 day
Experimental: as §1
A true leaf of a soybean (cultivar: Kurosengoku) was cut into a diameter of 1 cm to prepare each leaf disk. To each well of a 24 well microplate was dispensed 1 mL of an agar medium (agar concentration 1.2%), and then one of said leaf disk was placed on the agar medium in each well. To a mixture of Sorpol (registered trademark) 1200KX (0.5 μL), DMSO (4.5 μL), and xylene (5 μL) was added a DMSO solution (20 μL) comprising a test compound (10000 ppm), and the resulting mixture was mixed. The resulting mixture was diluted with ion exchange water to prepare a mixture comprising a prescribed concentration of the test compound.
The resulting mixture was sprayed into each leaf disk at a ratio of 10 μL per leaf disk. After 1 day, an aqueous suspension of spores of soybean rust fungus (Phakopsora pachyrhizi) having an amino acid substitution of F129L in a mitochondrial cytochrome b protein (1.0×10^5/mL) was inoculated by spraying on each leaf disk. After the inoculation, the microplate was placed into an artificial climate chamber (Lighting: 6 hours, Lights-out: 18 hours, Temperature: 23° C., Humidity: 60%). After 1 day, the leaf disks were air-dried until water droplets on the surfaces of the leaf disks disappeared, and the microplate was placed into the artificial climate chamber again for 12 days. Then, lesion area of soybean rust was investigated. As a result, when the prescribed concentration was 200 ppm, each lesion area of leaf disk treated with any one of the Present compound 9, 10, 11, 13, 14, 15, 16, 17, 18, 20, 32, 33, 34, 35, 36, 37, 38, 39, 40, 42, 43, 44, 47, 48, 49, 50, 51, 52, 53, 55, 56, 57, 58, 62, 63, 64, 65, 66, 67, 68, 69, 70, 71, 73, 74, 75, 76, 77, 78, 79, 80, 81, 82, 83, 84, 85, 86, 87, 88, 89, 90, 91, 92, 93, 94, 95, 96, 97, 98, 99, 100, 101, or 102 as the test compound was 30% or less relative to the lesion area of non-treated leaf disk.

Cochliobolus miyabeanus = experiment: Test Example 6 Control Test Against Rice Brown Spot Fungus (96 well titer plate growth); assay type: cell-based; conditions: 1 μL of 150 ppm DMSO solution + 150 μL YB liquid medium, 23° C., 3 days, absorbance at 550 nm
Experimental: as §1
Each of the Present compound 17, 33, 36, 37, 39, 40, 41, 42, 43, 44, 48, 49, 50, 51, 52, 53, 62, 68, 69, 70, 71, 76, 77, 79, 80, 81, 82, 83, 84, or 97 was diluted with DMSO to obtain a diluted solution containing 150 ppm of each compound, and 1 μL of the diluted solution was dispensed into a titer plate (96 well), and thereto was then dispensed 150 μL of a YB liquid medium to which spores of Cochliobolus miyabeanus were inoculated in advance. This plate was cultured at 23° C. for 3 days, thereby allowing Cochliobolus miyabeanus to undergo proliferation, and the absorbance at 550 nm of each well of the titer plate was then measured to determine a degree of growth of Cochliobolus miyabeanus. As a result, the degree of growth in the well treated with each of the above Present compounds was 50% or less relative to the degree of growth in the non-treated well.

Phakopsora pachyrhizi [3] = experiment: Test Example 11 Control Test Against Soybean Rust (pot test, spraying before inoculation); assay type: in vivo; conditions: 200 ppm foliage spray, soybeans (Kurosengoku), inoculated after 2 to 5 days
Experimental: as §1
A plastic pot was filled with soil, soybeans (cultivar: Kurosengoku) were seeded thereto, and cultured in a greenhouse for 10 to 14 days. The Present compound 9, 10, 11, 13, 14, 15, 17, 18, 20, 21, 22, 23, 26, 27, 33, 34, 35, 36, 37, 38, 39, 40, 41, 42, 43, 44, 46, 47, 53, 54, 55, 56, 57, 58, 66, 67, 68, 69, 70, 71, 73, 74, 75, 76, 77, 78, 79, 80, 81, 82, 83, 84, 85, 86, 87, 88, 89, 90, 91, 92, 93, 94, 95, 96, 97, 98, 99, 100, 101, or 102 formulated according to the method described in the Formulation Example 1 was mixed with water in such a way that the concentration thereof was 200 ppm, and the resulting mixture was sprayed to foliage of the above soybeans so as to adequately adhere onto the surfaces of leaves of the above soybeans. After spraying the mixture, the soybeans were air-dried. After 2 to 5 days, an aqueous suspension of spores of Phakopsora pachyrhizi was inoculated by spraying to the soybeans. After the inoculation, the soybeans were placed in a greenhouse at 23° C. in daytime and at 20° C. in nighttime under a humid condition for 1 to 2 day(s), then cultured in a greenhouse for 12 days, and then a lesion area was investigated. As a result, the lesion area in the soybeans treated with each of the above Present compound was 30% or less relative to the lesion area in the non-treated soybeans.

Cn1nccc1S(=O)(=O)n1ccc(-c2cc(F)c(Br)c(F)c2)n1 [compound 48]
number of germinated spores relative to the non-treated well (Phakopsora pachyrhizi [1]): ≤ 50% | lesion area relative to the lesion area of non-treated leaf disk [2]: ≤ 30% | degree of growth relative to the degree of growth in the non-treated well (Cochliobolus miyabeanus): ≤ 50%

O=S(=O)(c1ccco1)n1ccc(-c2ccc(Br)cc2)n1 [compound 49]
number of germinated spores relative to the non-treated well (Phakopsora pachyrhizi [1]): ≤ 50% | lesion area relative to the lesion area of non-treated leaf disk [2]: ≤ 30% | degree of growth relative to the degree of growth in the non-treated well (Cochliobolus miyabeanus): ≤ 50%

COc1ccc(-c2ccn(S(=O)(=O)c3cccnc3)n2)cc1 [compound 58]
number of germinated spores relative to the non-treated well (Phakopsora pachyrhizi [1]): ≤ 50% | lesion area relative to the lesion area of non-treated leaf disk [2]: ≤ 30% | lesion area relative to the lesion area in the non-treated soybeans (Phakopsora pachyrhizi [3]): ≤ 30%

O=S(=O)(c1cccs1)n1ccc(-c2ccc3ocnc3c2)n1 [compound 67]
number of germinated spores relative to the non-treated well (Phakopsora pachyrhizi [1]): ≤ 50% | lesion area relative to the lesion area of non-treated leaf disk [2]: ≤ 30% | lesion area relative to the lesion area in the non-treated soybeans (Phakopsora pachyrhizi [3]): ≤ 30%

O=S(=O)(c1ccco1)n1ccc(-c2cc(F)cc(F)c2)n1 [compound 73]
number of germinated spores relative to the non-treated well (Phakopsora pachyrhizi [1]): ≤ 50% | lesion area relative to the lesion area of non-treated leaf disk [2]: ≤ 30% | lesion area relative to the lesion area in the non-treated soybeans (Phakopsora pachyrhizi [3]): ≤ 30%

O=S(=O)(c1ccoc1)n1ccc(-c2cc(F)cc(F)c2)n1 [compound 74]
number of germinated spores relative to the non-treated well (Phakopsora pachyrhizi [1]): ≤ 50% | lesion area relative to the lesion area of non-treated leaf disk [2]: ≤ 30% | lesion area relative to the lesion area in the non-treated soybeans (Phakopsora pachyrhizi [3]): ≤ 30%

O=S(=O)(c1cccs1)n1ccc(-c2cc(F)cc(F)c2)n1 [compound 75]
number of germinated spores relative to the non-treated well (Phakopsora pachyrhizi [1]): ≤ 50% | lesion area relative to the lesion area of non-treated leaf disk [2]: ≤ 30% | lesion area relative to the lesion area in the non-treated soybeans (Phakopsora pachyrhizi [3]): ≤ 30%

O=S(=O)(c1ccco1)n1ccc(-c2ccccc2)n1 [compound 85]
number of germinated spores relative to the non-treated well (Phakopsora pachyrhizi [1]): ≤ 50% | lesion area relative to the lesion area of non-treated leaf disk [2]: ≤ 30% | lesion area relative to the lesion area in the non-treated soybeans (Phakopsora pachyrhizi [3]): ≤ 30%

O=S(=O)(c1ccoc1)n1ccc(-c2ccccc2)n1 [compound 86]
number of germinated spores relative to the non-treated well (Phakopsora pachyrhizi [1]): ≤ 50% | lesion area relative to the lesion area of non-treated leaf disk [2]: ≤ 30% | lesion area relative to the lesion area in the non-treated soybeans (Phakopsora pachyrhizi [3]): ≤ 30%

O=S(=O)(c1cccs1)n1ccc(-c2ccccc2)n1 [compound 87]
number of germinated spores relative to the non-treated well (Phakopsora pachyrhizi [1]): ≤ 50% | lesion area relative to the lesion area of non-treated leaf disk [2]: ≤ 30% | lesion area relative to the lesion area in the non-treated soybeans (Phakopsora pachyrhizi [3]): ≤ 30%

O=S(=O)(c1ccco1)n1ccc(-c2ccc(F)cc2)n1 [compound 88]
number of germinated spores relative to the non-treated well (Phakopsora pachyrhizi [1]): ≤ 50% | lesion area relative to the lesion area of non-treated leaf disk [2]: ≤ 30% | lesion area relative to the lesion area in the non-treated soybeans (Phakopsora pachyrhizi [3]): ≤ 30%

O=S(=O)(c1cccs1)n1ccc(-c2ccc(F)cc2)n1 [compound 90]
number of germinated spores relative to the non-treated well (Phakopsora pachyrhizi [1]): ≤ 50% | lesion area relative to the lesion area of non-treated leaf disk [2]: ≤ 30% | lesion area relative to the lesion area in the non-treated soybeans (Phakopsora pachyrhizi [3]): ≤ 30%

O=S(=O)(c1ccco1)n1ccc(-c2ccc(F)c(F)c2)n1 [compound 91]
number of germinated spores relative to the non-treated well (Phakopsora pachyrhizi [1]): ≤ 50% | lesion area relative to the lesion area of non-treated leaf disk [2]: ≤ 30% | lesion area relative to the lesion area in the non-treated soybeans (Phakopsora pachyrhizi [3]): ≤ 30%

O=S(=O)(c1ccco1)n1ccc(-c2cccc(F)c2)n1 [compound 94]
number of germinated spores relative to the non-treated well (Phakopsora pachyrhizi [1]): ≤ 50% | lesion area relative to the lesion area of non-treated leaf disk [2]: ≤ 30% | lesion area relative to the lesion area in the non-treated soybeans (Phakopsora pachyrhizi [3]): ≤ 30%

O=S(=O)(c1ccoc1)n1ccc(-c2cccc(F)c2)n1 [compound 95]
number of germinated spores relative to the non-treated well (Phakopsora pachyrhizi [1]): ≤ 50% | lesion area relative to the lesion area of non-treated leaf disk [2]: ≤ 30% | lesion area relative to the lesion area in the non-treated soybeans (Phakopsora pachyrhizi [3]): ≤ 30%

O=S(=O)(c1cccnc1)n1ccc(-c2cc(F)cc(F)c2)n1 [compound 98]
number of germinated spores relative to the non-treated well (Phakopsora pachyrhizi [1]): ≤ 50% | lesion area relative to the lesion area of non-treated leaf disk [2]: ≤ 30% | lesion area relative to the lesion area in the non-treated soybeans (Phakopsora pachyrhizi [3]): ≤ 30%

O=S(=O)(c1cncc(F)c1)n1ccc(-c2cc(F)c(Br)c(F)c2)n1 [compound 100]
number of germinated spores relative to the non-treated well (Phakopsora pachyrhizi [1]): ≤ 50% | lesion area relative to the lesion area of non-treated leaf disk [2]: ≤ 30% | lesion area relative to the lesion area in the non-treated soybeans (Phakopsora pachyrhizi [3]): ≤ 30%

O=S(=O)(c1cccnc1)n1ccc(-c2ccc(F)c(F)c2)n1 [compound 101]
number of germinated spores relative to the non-treated well (Phakopsora pachyrhizi [1]): ≤ 50% | lesion area relative to the lesion area of non-treated leaf disk [2]: ≤ 30% | lesion area relative to the lesion area in the non-treated soybeans (Phakopsora pachyrhizi [3]): ≤ 30%
